This note sets out measurements from patent US20200216416A1, “QUINOLINE COMPOUNDS AS INHIBITORS OF TAM AND MET KINASES” (Array BioPharma Inc., priority 2019, published 2020).

Data set [1] has as its target T1, GST-tagged recombinant human TYRO3 kinase domain (Homo sapiens, UniProt Q06418).
T1 construct: GST-tagged recombinant human TYRO3 kinase domain; purchased Carna PR7480A
T1 sequence (Q06418 518-790 limits assumed): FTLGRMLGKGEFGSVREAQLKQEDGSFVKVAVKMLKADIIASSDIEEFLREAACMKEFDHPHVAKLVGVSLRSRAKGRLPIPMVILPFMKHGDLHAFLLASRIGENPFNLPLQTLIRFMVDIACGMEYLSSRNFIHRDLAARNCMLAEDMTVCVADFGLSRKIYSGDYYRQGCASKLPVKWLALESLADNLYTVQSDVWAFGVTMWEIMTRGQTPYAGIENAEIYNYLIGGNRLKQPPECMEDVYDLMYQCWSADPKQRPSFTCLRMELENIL
Kind of data set: TYRO3 Enzyme Assay (LanthaScreen Eu Kinase Binding). The conditions noted are these: averaged IC50; TYRO3 5 nM; 60-minute incubation at 22° C.; TR-FRET. The gist of the method: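 Competitive tracer-displacement TR-FRET: 5 nM kinase, 20 nM Alexa-Fluor Tracer 236 and 2 nM Eu-anti-GST with threefold-diluted compound in 25 mM HEPES pH 7.4, 10 mM MgCl2, 0.01% Triton X-100, 2% DMSO, 60 min at 22° C. Ratiometric percent of control fitted to a 4-parameter logistic; IC50 at 50 POC.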
For orientation: In TR-FRET formats the signal depends on donor and acceptor labels being close together.

Data set [2] has as its target T2, human MET kinase del Ex14 (Homo sapiens, UniProt P08581, DEL963-1009).
T2 construct: GST-tagged recombinant human MET kinase domain; purchased Signal Chem
Kind of data set: c-Met Enzyme Assay, del Ex14 mutant. The class given is binding. As to conditions: averaged IC50; del Ex14 5 nM; 60-minute incubation at 22° C.; read-out: Del14 IC50. As for the experimental part: (§1) The affinity of compound binding to wild type and mutant human MET kinases was measured using Invitrogen's LanthaScreen™ Eu Kinase Binding technology. Briefly, GST-tagged recombinant human MET kinase domain from Signal Chem (see Table 8 below for concentration in assay) was incubated with 50 nM Alexa-Fluor® Tracer 236 (Invitrogen Cat No. PR9078A) and 2 nM Europium-anti-GST (Invitrogen Cat. No. A15116) along with test compound in a buffer consisting of 25 mM HEPES, pH 7.4, 10 mM MgCl2, 0.01% Triton X-100, 1mM DTT, and 2% DMSO. Compounds were typically prepared in a three-fold serial dilution in DMSO and added to the assay to give the appropriate final concentration. After a 60-minute incubation at 22° C., the reaction was measured using a PerkinElmer EnVision multimode plate reader via TR-FRET dual wavelength detection, and the percent of control (POC) calculated using a ratiometric emission factor. […] The POC values were fit to a 4 parameter logistic curve and the IC50 value is point where the curve crosses 50 POC.

The target of data set [3] is T3, human MET kinase F1200I (Homo sapiens, UniProt P08581, F1200I).
T3 construct: GST-tagged recombinant human MET kinase domain; purchased Signal Chem
Kind of data set: c-Met Enzyme Assay, F1200I mutant. As to conditions: averaged IC50; F1200I 2 nM; 60-minute incubation at 22° C. The class given is binding. As for the experimental part: as §1

Data set [4] addresses T4, MDR1 transfected LLC-PK1 cells (Homo sapiens, UniProt P08183).
T4 construct: expressed in transfected cells; host or cells: LLC-PK1
Kind of data set: MDR1 LLC-PK1 permeability assay. As to conditions: efflux ratio = Papp(B-A)/Papp(A-B). The class given is in vitro ADME. The gist of the method:
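MDR1-transfected LLC-PK1 monolayers dosed at 1 μM test article (1% organic) in A→B and B→A directions, in triplicate, for 2 h at 37 °C; lucifer yellow monitored monolayer integrity. Compound measured by LC-MS/MS against labetalol internal standard; Papp averaged per replicate, efflux ratio = Papp(B−A)/Papp(A−B).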

T2 sequence (P08581 with tags, fused parts or gaps DEL963-1009 limits assumed): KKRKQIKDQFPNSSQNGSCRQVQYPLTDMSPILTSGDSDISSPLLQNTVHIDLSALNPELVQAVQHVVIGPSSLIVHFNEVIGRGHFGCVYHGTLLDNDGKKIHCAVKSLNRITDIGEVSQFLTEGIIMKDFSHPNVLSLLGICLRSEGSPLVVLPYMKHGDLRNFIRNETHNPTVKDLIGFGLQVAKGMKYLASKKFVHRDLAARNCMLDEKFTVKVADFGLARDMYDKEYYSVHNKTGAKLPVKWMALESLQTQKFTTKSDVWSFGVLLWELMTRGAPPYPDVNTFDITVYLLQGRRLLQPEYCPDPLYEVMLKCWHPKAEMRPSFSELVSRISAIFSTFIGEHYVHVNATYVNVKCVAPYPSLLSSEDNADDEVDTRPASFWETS
T3 sequence (P08581 1078-1345 F1200I limits assumed): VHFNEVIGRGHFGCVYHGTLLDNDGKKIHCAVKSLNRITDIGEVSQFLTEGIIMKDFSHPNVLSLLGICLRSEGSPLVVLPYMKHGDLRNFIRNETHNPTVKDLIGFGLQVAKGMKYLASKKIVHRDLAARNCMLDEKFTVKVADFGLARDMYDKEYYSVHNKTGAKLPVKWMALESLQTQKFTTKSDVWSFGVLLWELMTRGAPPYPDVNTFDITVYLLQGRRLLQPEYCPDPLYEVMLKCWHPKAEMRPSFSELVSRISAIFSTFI
T4 sequence (P08183 whole entry): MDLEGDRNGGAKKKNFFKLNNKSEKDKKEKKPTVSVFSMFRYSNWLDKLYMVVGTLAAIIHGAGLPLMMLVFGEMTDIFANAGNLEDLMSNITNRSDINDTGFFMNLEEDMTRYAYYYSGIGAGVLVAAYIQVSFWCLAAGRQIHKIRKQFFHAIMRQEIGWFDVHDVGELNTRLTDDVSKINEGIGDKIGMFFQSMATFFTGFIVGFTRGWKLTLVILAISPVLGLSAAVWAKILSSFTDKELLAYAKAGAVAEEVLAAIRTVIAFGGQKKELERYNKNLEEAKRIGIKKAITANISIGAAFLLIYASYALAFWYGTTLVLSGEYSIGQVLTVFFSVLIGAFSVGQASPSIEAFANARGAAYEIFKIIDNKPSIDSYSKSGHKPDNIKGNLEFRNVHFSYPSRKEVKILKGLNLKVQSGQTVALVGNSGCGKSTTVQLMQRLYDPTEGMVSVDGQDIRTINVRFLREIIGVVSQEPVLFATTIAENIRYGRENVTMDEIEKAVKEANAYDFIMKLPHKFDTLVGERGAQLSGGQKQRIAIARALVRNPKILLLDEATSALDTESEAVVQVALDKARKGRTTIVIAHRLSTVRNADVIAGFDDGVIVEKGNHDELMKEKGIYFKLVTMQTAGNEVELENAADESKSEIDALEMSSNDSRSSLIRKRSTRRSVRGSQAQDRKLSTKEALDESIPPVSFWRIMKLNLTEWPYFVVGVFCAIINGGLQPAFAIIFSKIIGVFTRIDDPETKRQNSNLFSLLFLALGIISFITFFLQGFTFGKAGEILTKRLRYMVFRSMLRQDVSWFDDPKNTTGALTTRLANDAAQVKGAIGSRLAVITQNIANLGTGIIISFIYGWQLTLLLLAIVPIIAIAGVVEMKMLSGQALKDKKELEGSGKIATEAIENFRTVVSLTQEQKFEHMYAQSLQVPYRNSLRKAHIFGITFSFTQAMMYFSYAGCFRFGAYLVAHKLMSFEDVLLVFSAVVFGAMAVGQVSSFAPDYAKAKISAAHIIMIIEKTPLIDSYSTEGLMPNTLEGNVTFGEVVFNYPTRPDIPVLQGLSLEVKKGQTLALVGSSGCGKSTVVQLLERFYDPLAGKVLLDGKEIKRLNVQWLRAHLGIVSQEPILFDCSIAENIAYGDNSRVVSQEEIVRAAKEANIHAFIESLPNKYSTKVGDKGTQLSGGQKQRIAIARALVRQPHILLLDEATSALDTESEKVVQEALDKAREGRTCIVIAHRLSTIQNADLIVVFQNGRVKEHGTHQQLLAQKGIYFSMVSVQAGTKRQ

The IC50 is the point on the concentration scale where inhibition reaches its midpoint. `COc1cc2nccc(Oc3ccc(NC(=O)c4cn(CCC(C)C)cc(-c5ccc(F)c(F)c5)c4=O)nc3)c2cc1OC` [Example 35, 5-(3,4-difluorophenyl)-N-(5-((6,7-dimethoxyquinolin-4yl)oxy)pyridin-2-yl)-1-isopentyl-4-oxo-1,4-dihydropyridine-3-carboxamide]: the IC50 in data set [1] came out at 30 nM; in data set [2], 14 nM; in data set [3], 11.5 nM. Moreover, the “MDR1 Pe Ratio” value in data set [4] worked out at 3.5.

Regarding `CCn1cc(C(=O)Nc2ccc(Oc3ccnc4ccc(OC)cc34)cn2)c(=O)c(-c2ccc(F)cc2)c1` [Example 39, 1-ethyl-5-(4-fluorophenyl)-N-(5-((6-methoxyquinolin-4-yl)oxy)pyridin-2-yl)-4-oxo-1,4-dihydropyridine-3-carboxamide], the IC50 in data set [1] amounted to 83 nM; in data set [2], 25.6 nM; in data set [3], 31.6 nM.

As for `COc1ccc2nccc(Oc3ccc(NC(=O)c4cn(C)cc(-c5ccc(F)cc5)c4=O)nc3)c2c1` [Example 41, 5-(4-fluorophenyl)-N-(5-((6-methoxyquinolin-4yl)oxy)pyridin-2-yl)-1-methyl-4-oxo-1,4-dihydropyridine-3-carboxamide], the IC50 in data set [1] amounted to 141 nM; in data set [2], 108 nM; in data set [3], 105 nM.

For `COc1cc2nccc(Oc3ccc(NC(=O)c4cn(CCN(C)C)cc(-c5ccc(Cl)cc5)c4=O)nc3)c2cc1OC` [Example 42], the IC50 came to 16 nM in data set [1], 1.9 nM in data set [2] and 3.4 nM in data set [3].

Regarding `COc1cc2nccc(Oc3ccc(NC(=O)c4cn(CCN(C)C)cc(-c5ccc(F)c(F)c5)c4=O)nc3)c2cc1OC` [Example 43, 5-(3,4-difluorophenyl)-N-(5-((6,7-dimethoxyquinolin-4-yl)oxy)pyridin-2-yl)-1-], the IC50 in data set [1] is 11 nM; in data set [2], 2.5 nM; in data set [3], 2 nM.

Turning to `COc1cc2nccc(Oc3ccc(NC(=O)c4cn(CCN(C)C)cc(-c5ccc(F)cc5F)c4=O)nc3)c2cc1OC` [Example 44, 5-(2,4-difluorophenyl)-N-(5-((6,7-dimethoxyquinolin-4-yl)oxy)pyridin-2-yl)-1-(2-(dimethylamino)ethyl)-4-oxo-1,4-dihydropyridine-3-carboxamide], the values for the IC50 in data set [1], in data set [2] and in data set [3] were 4 nM, 2.1 nM and 4.2 nM, respectively.

With `COc1cc2nccc(Oc3ccc(NC(=O)c4cn(C)c(C(C)C)c(-c5ccc(F)cc5)c4=O)nc3)c2cc1OC` [Example 45, N-(5-((6,7-dimethoxyquinolin-4-yl)oxy)pyridin-2-yl)-5-(4-fluorophenyl)-6-isopropyl-1-methyl-4-oxo-1,4-dihydropyridine-3-carboxamide], the results for the IC50 in data set [1], in data set [2] and in data set [3] were 91 nM, 5.7 nM and 8.3 nM, respectively.

Regarding `COc1cc2nccc(Oc3ccc(NC(=O)c4cn(CCN(C)C)cc(-c5ccc(F)cc5)c4=O)nc3)c2cc1OC` [Example 46], the IC50 was found to be 5 nM in data set [1], 2.8 nM in data set [2] and 3.4 nM in data set [3].

As for `COc1ccc2nccc(Oc3ccc(NC(=O)c4cn(CCN(C)C)cc(-c5ccc(F)cc5)c4=O)nc3)c2c1` [Example 47], the figures for the IC50 in data set [1], in data set [2] and in data set [3] were 56 nM, 14.3 nM and 8.5 nM, respectively.

Consider `COc1cc2c(Oc3ccc(NC(=O)c4cn(C(C)C)c(C)c(-c5ccc(F)cc5)c4=O)nc3)ccnc2cc1F` [Example 48, N-(5-((7-fluoro-6-methoxyquinolin-4yl)oxy)pyridin-2-yl)-5-(4-fluorophenyl)-1-isopropyl-6-methyl-4-oxo-1,4-dihydropyridine-3-carboxamide], for which the values for the IC50 in data set [1], in data set [2] and in data set [3] were 10 nM, 4.9 nM and 5.4 nM, respectively.

Turning to `COc1cc2c(Oc3ccc(NC(=O)c4cn(C(C)C)cc(-c5ccc(F)cc5)c4=O)nc3)ccnc2cc1F` [Example 49, N-(5-((7-fluoro-6-methoxyquinolin-4yl)oxy)pyridin-2-yl)-5-(4-fluorophenyl)-1-isopropyl-4-oxo-1,4-dihydropyridine-3-carboxamide], the IC50 in data set [1] is 58 nM; in data set [2] it was 22 nM; in data set [3] it was 27.8 nM.

As to `CC(C)n1cc(C(=O)Nc2ccc(Oc3ccnc4cc(OC(F)(F)F)ccc34)cn2)c(=O)c(-c2ccc(F)cc2)c1` [Example 50, 5-(4-fluorophenyl)-1-isopropyl-4-oxo-N-(5-((7-(trifluoromethoxy)quinolin-4-yl)oxy)pyridin-2-yl)-1,4-dihydropyridine-3-carboxamide], the values for the IC50 in data set [1], in data set [2] and in data set [3] were 470 nM, 90.4 nM and 104 nM, respectively.

Consider `CCOc1ccc2nccc(Oc3ccc(NC(=O)c4cn(C(C)C)cc(-c5ccc(F)cc5)c4=O)nc3)c2c1` [Example 51, N-(5-((6-ethoxyquinolin-4-yl)oxy)pyridin-2-yl)-5-(4-fluorophenyl)-1-isopropyl-4-oxo-1,4-dihydropyridine-3-carboxamide], for which the IC50 was 112 nM in data set [1], 29.4 nM in data set [2] and 35 nM in data set [3].

`CCOc1ccc2c(Oc3ccc(NC(=O)c4cn(C(C)C)cc(-c5ccc(F)cc5)c4=O)nc3)ccnc2c1` [Example 52, N-(5-((7-ethoxyquinolin-4-yl)oxy)pyridin-2-yl)-5-(4-fluorophenyl)-1-isopropyl-4-oxo-1,4-dihydropyridine-3-carboxamide]: the IC50 is 18 nM in data set [1], 10.3 nM in data set [2] and 20.1 nM in data set [3].

As for `COc1cc2nccc(Oc3cnc(NC(=O)c4cn(C(C)C)cc(-c5ccc(F)cc5)c4=O)nc3)c2cc1OC` [Example 54, N-(5-((6,7-dimethoxyquinolin-4-yl)oxy)pyrimidin-2-yl)-5-(4-fluorophenyl)-1-isopropyl-4-oxo-1,4-dihydropyridine-3-carboxamide], the IC50 was 21 nM in data set [1], 3.8 nM in data set [2] and 6.7 nM in data set [3].

In the case of `COc1cc2nccc(Oc3cnc(NC(=O)c4cn(C(C)C)c(C)c(-c5ccc(F)cc5)c4=O)nc3)c2cc1OC` [Example 55, N-(5-((6,7-dimethoxyquinolin-4-yl)oxy)pyrimidin-2-yl)-5-(4-fluorophenyl)-1-isopropyl-6-methyl-4-oxo-1,4-dihydropyridine-3-carboxamide], the figures for the IC50 in data set [1], in data set [2] and in data set [3] were 8 nM, 3.1 nM and 3.4 nM, respectively.

Regarding `COc1cc2c(Oc3ccc(NC(=O)c4cn(C(C)C)cc(-c5ccc(F)cc5)c4=O)nc3)ccnc2cc1OCCCN1CCOCC1` [Example 56, 5-(4-fluorophenyl)-1-isopropyl-N-(5-((6-methoxy-7-(3-morpholinopropoxy)quinolin-4-yl)oxy)pyridin-2-yl)-4-oxo-1,4-dihydropyridine-3-carboxamide], the IC50 was 10 nM in data set [1], 4.5 nM in data set [2] and 5 nM in data set [3].

Consider `COc1cc2ncc(C#N)c(Oc3ccc(NC(=O)c4cn(C(C)C)cc(-c5ccc(F)cc5)c4=O)nc3)c2cc1OC` [Example 57, N-(5-((3-cyano-6,7-dimethoxyquinolin-4-yl)oxy)pyridin-2-yl)-5-(4-fluorophenyl)-1-isopropyl-4-oxo-1,4-dihydropyridine-3-carboxamide], for which the IC50 in data set [1] was 255 nM; in data set [2] it was 305 nM; in data set [3], 346 nM.

Take `COc1cc2nccc(Oc3ccc(NC(=O)c4cn(C(C)C)cc(-c5ccc(F)cc5)c4=O)cn3)c2cc1OC` [Example 58, N-(6-((6,7-dimethoxyquinolin-4-yl)oxy)pyridin-3-yl)-5-(4-fluorophenyl)-1-isopropyl-4-oxo-1,4-dihydropyridine-3-carboxamide]: the values for the IC50 in data set [1], in data set [2] and in data set [3] were 6 nM, 3.1 nM and 3.5 nM, respectively.
